Data from patent US9850283B2, “Macrocyclic inhibitors of the PD-1/PD-L1 and CD80(B7-1)/PD-L1 protein/protein interactions” (BRISTOL-MYERS SQUIBB COMPANY, priority 2013, dated 2017).
pIC50: −log10 of the molar value. Read-outs that look alike come from different tables or passages of the source. Starred links: 1 amine or outer side, 2 acyl side, 3 side chain; linkers in the order of their positions; H or OH if unused. Positions of bridges follow the written chain, without caps; N, C: chain ends. Non-standard residues stand in square brackets, D forms with d. Residues, ends and D or L forms follow the SMILES beside them. ξ: configuration not given here. Phe(3,4,5-F3) = N[C@@H](Cc1cc(F)c(F)c(F)c1)C(=O)O; Pro(cis-4-Ph) = O=C(O)[C@@H]1C[C@H](c2ccccc2)CN1; Pro(4R-Bn) = O=C(O)[C@@H]1C[C@@H](Cc2ccccc2)CN1; d(cisHyp) = O=C(O)[C@H]1C[C@@H](O)CN1; cisHyp = O=C(O)[C@@H]1C[C@H](O)CN1; Hyp = O=C(O)[C@@H]1C[C@@H](O)CN1; NMeF = CN[C@@H](Cc1ccccc1)C(=O)O; X4 = O=C([C@H]1COCCN1[*:1])[*:2]; dHyp = O=C(O)[C@H]1C[C@H](O)CN1; NMeNle = CCCC[C@H](NC)C(=O)O; NMeM = CN[C@@H](CCSC)C(=O)O; NMeA = CN[C@@H](C)C(=O)O; Orn = NCCC[C@H](N)C(=O)O; Dab = NCC[C@H](N)C(=O)O; Dap = NC[C@H](N)C(=O)O; ξhCys = NC(CCS)C(=O)O; ξC = NC(CS)C(=O)O; Sar = CNCC(=O)O

Tests used:
Human PD-L1/PD-1 = biological target: T1, Human PD-L1/PD-1 (Homo sapiens, UniProt Q9NZQ7); assay: HTRF PD-1-Ig/PD-L1-His binding assay (human PD-L1); conditions: cluster symbol; read-out: HTRF IC50 cluster
T1 construct: made in house; host or cells: HEK293T
T1 sequence (Q9NZQ7 with tags, fused parts or gaps): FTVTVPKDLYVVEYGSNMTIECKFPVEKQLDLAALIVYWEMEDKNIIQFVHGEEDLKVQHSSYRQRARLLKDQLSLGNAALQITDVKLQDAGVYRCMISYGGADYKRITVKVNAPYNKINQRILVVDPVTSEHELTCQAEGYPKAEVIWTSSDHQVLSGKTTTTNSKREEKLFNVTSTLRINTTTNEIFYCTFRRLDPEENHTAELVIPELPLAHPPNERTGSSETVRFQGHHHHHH
In short: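 Ig- and His-fused extracellular PD-1/PD-L1 binding in BSA/Tween-20 dPBS. HTRF with Eu anti-Ig (1 nM final) and APC anti-His (20 nM final).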

[1] = biological target: T2, LK35.2-hPD-L1 cells / PE-labeled PD-1-Ig (Homo sapiens, UniProt Q9NZQ7); assay: LK35.2-hPD-L1 cell binding high-content screening assay; assay type: cell-based
T2 construct: expressed in transfected cells; host or cells: LK35.2 mouse B cell line
T2 sequence (Q9NZQ7 19-290): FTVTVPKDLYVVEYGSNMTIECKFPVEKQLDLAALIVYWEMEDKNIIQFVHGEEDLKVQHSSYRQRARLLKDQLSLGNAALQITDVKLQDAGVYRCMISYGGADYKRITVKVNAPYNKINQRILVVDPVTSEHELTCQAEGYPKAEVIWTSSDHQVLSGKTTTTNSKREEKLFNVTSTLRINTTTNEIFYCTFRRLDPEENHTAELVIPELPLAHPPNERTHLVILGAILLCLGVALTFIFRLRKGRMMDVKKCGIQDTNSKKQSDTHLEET
Protocol: LK35.2-hPD-L1 Cell Binding High-Content Screening Assay. Phycoerythrin (PE) was covalently linked to the Ig epitope tag of human PD-1-Ig and fluorescently-labeled PD-1-Ig was used for binding studies with a mouse B cell line (LK35.2) stably over-expressing human PD-L1 (LK35.2-hPD-L1). Briefly, 3×10^3 LK35.2-hPD-L1 cells were seeded into 384 well plates in 20 ul of RPMI supplemented with 10% fetal calf serum and cultured overnight. 125 nl of compound was added to cells, followed by 5 ul of PE-labeled PD-1-Ig (1 nM final), diluted in RPMI supplemented with 10% fetal calf serum, followed by incubation at 37° C. for 1 h. […] Cells were washed 3× in 100 ul of dPBS followed by final addition of 15 ul of dPBS. Data was collected and processed using a Cell Insight NXT High Content Imager and associated software.

[2] = cell binding assay, cell line not given, cluster symbol, read-out: CBA IC50 cluster
[3] = cluster symbol, cell line of CBA not given (LK35.2-hPD-L1 or 293T-hPD-L1), read-out: CBA IC50 cluster

SMILES	pIC50 (Human PD-L1/PD-1)	pIC50 [1, 2]	pIC50 [1, 3]	pIC50 ([1]; cell binding assay, cell line not given, value given instead of cluster, read-out: CBA IC50 value)
CCCC[C@H]1C(=O)N(C)[C@@H](CCCC)C(=O)N[C@@H](CCCNC(=N)N)C(=O)NC(C(=O)NCC(N)=O)CCSCC(=O)N[C@@H](Cc2ccc(O)cc2)C(=O)N(C)[C@@H](C)C(=O)N[C@@H](CC(N)=O)C(=O)N2CCC[C@H]2C(=O)N[C@@H](Cc2cnc[nH]2)C(=O)N[C@@H](CC(C)C)C(=O)N2C[C@H](O)C[C@H]2C(=O)N[C@@H](Cc2c[nH]c3ccccc23)C(=O)N[C@@H](CO)C(=O)N[C@@H](Cc2c[nH]c3ccccc23)C(=O)N1C (some centres unmarked) [Example 9021] ({CH2CO}-Y[NMeA]NPHL[Hyp]WSW[NMeNle][NMeNle]R[ξhCys]G-NH2; thioether N-14)	7.52 to 8.17	< 7.13		
CCCC[C@H]1C(=O)N(C)[C@@H](CCCC)C(=O)N[C@@H](CCN)C(=O)N[C@H](C(=O)NCC(N)=O)CSCC(=O)N[C@@H](Cc2ccc(O)cc2)C(=O)N(C)[C@@H](C)C(=O)N[C@@H](CC(N)=O)C(=O)N2CCC[C@H]2C(=O)N[C@@H](Cc2c[nH]cn2)C(=O)N[C@@H](CCC(=O)O)C(=O)N2C[C@H](Cc3ccccc3)C[C@H]2C(=O)N[C@@H](Cc2c[nH]c3ccccc23)C(=O)N[C@@H](CCN)C(=O)N[C@@H](Cc2c[nH]c3ccccc23)C(=O)N1C [Example 13007] ({CH2CO}-Y[NMeA]NPHE[Pro(4R-Bn)]W[Dab]W[NMeNle][NMeNle][Dab]CG-NH2; thioether N-14)	8.17 to 9.41	8.33 to 9.80		
CCCC[C@H]1C(=O)N(C)CC(=O)N[C@@H](CCCNC(=N)N)C(=O)N[C@H](C(=O)NCC(N)=O)CSCC(=O)N[C@@H](Cc2ccccc2)C(=O)N(C)[C@@H](C)C(=O)N[C@@H](CC(N)=O)C(=O)N2CCC[C@H]2C(=O)N[C@@H](Cc2cnc[nH]2)C(=O)N[C@@H](CC(C)C)C(=O)N(C)CC(=O)N[C@@H](Cc2c[nH]c3ccccc23)C(=O)N[C@@H](CO)C(=O)N[C@@H](Cc2c[nH]c3ccccc23)C(=O)N1C [Example 5027] (HELM PEPTIDE1{[O=C(C[*:3])[*:2]].F.[meA].N.P.H.L.[Sar].W.S.W.[CCCC[C@@H](C(=O)[*:2])N(C)[*:1]].[Sar].R.C.G.[am]}$PEPTIDE1,PEPTIDE1,1:R3-15:R3$$$V2.0)	< 7.52	< 7.13		
CCCC[C@H]1C(=O)N(C)[C@@H](CCCC)C(=O)N[C@@H](C)C(=O)N[C@H](C(=O)NCC(N)=O)CSCC(=O)N[C@@H](Cc2ccc(O)cc2)C(=O)N(C)[C@@H](C)C(=O)N[C@@H](CC(N)=O)C(=O)N2CCC[C@H]2C(=O)N[C@@H](CN)C(=O)N[C@@H](CCC(=O)O)C(=O)N2C[C@H](O)C[C@H]2C(=O)N[C@@H](Cc2c[nH]c3ccccc23)C(=O)N[C@@H](CCN)C(=O)N[C@@H](Cc2c[nH]c3ccccc23)C(=O)N1C [Example 5040] ({CH2CO}-Y[NMeA]NP[Dap]E[Hyp]W[Dab]W[NMeNle][NMeNle]ACG-NH2; thioether N-14)	7.52 to 8.17	8.33 to 9.80		
CCCC[C@H]1C(=O)N(C)[C@@H](CCCC)C(=O)N[C@@H](CCC(=O)O)C(=O)N[C@H](C(=O)NCC(N)=O)CSCC(=O)N[C@@H](Cc2ccc(O)cc2)C(=O)N(C)[C@@H](C)C(=O)N[C@@H](CC(=O)O)C(=O)N2CCC[C@H]2C(=O)N[C@@H](Cc2c[nH]cn2)C(=O)N[C@@H](CCCN)C(=O)N2C[C@H](O)C[C@H]2C(=O)N[C@@H](Cc2c[nH]c3ccccc23)C(=O)N[C@@H](CCCCN)C(=O)N[C@@H](Cc2c[nH]c3ccccc23)C(=O)N1C [Example 5137] ({CH2CO}-Y[NMeA]DPH[Orn][Hyp]WKW[NMeNle][NMeNle]ECG-NH2; thioether N-14)	8.17 to 9.41	8.33 to 9.80		
CCCC[C@H]1C(=O)N(C)[C@@H](CCCC)C(=O)N[C@@H](CCCN)C(=O)N[C@H](C(=O)NCC(N)=O)CSCC(=O)N[C@@H](Cc2ccc(O)cc2)C(=O)N(C)[C@@H](C)C(=O)N[C@@H](CC(N)=O)C(=O)N2CCC[C@H]2C(=O)N[C@@H](CN)C(=O)N[C@@H](CC(C)C)C(=O)N2C[C@@H](O)C[C@H]2C(=O)N[C@@H](Cc2c[nH]c3ccccc23)C(=O)N[C@@H](CO)C(=O)N[C@@H](Cc2c[nH]c3ccccc23)C(=O)N1C [Example 1145] ({CH2CO}-Y[NMeA]NP[Dap]L[cisHyp]WSW[NMeNle][NMeNle][Orn]CG-NH2; thioether N-14)	7.52 to 8.17		8.33 to 9.80	
CCCC[C@H]1C(=O)N2C[C@H](O)C[C@@H]2C(=O)N[C@@H](CC(N)=O)C(=O)N[C@@H](C(C)C)C(=O)N(C)[C@@H](Cc2ccccc2)C(=O)N[C@@H](CCC(=O)O)C(=O)N2CCOC[C@@H]2C(=O)N[C@@H](Cc2c[nH]c3ccccc23)C(=O)N[C@@H](Cc2ccc(O)cc2)C(=O)N[C@@H](CCCN)C(=O)N[C@H](C(=O)NCC(N)=O)CSCC(=O)N[C@@H](Cc2cc(F)c(F)c(F)c2)C(=O)N(C)[C@@H](Cc2ccccc2)C(=O)N1C [Example 3608] ({CH2CO}-[Phe(3,4,5-F3)][NMeF][NMeNle][d(cisHyp)]NV[NMeF]E[X4]WY[Orn]CG-NH2; thioether N-13)	8.17 to 9.41	8.33 to 9.80		
CCCC[C@H]1C(=O)N2CCC[C@H]2C(=O)N[C@@H](CC(=O)O)C(=O)N[C@@H](C(C)C)C(=O)N(C)[C@@H](Cc2ccccc2)C(=O)N[C@@H](Cc2ccc(O)cc2)C(=O)N2CCC[C@H]2C(=O)N[C@@H](Cc2c[nH]c3ccccc23)C(=O)N[C@@H](Cc2ccc(O)cc2)C(=O)N[C@@H](CC(C)C)C(=O)N[C@H](C(=O)NCC(N)=O)CSCC(=O)N[C@@H](Cc2ccccc2)C(=O)N(C)[C@@H](Cc2ccccc2)C(=O)N1C [Example 3070] (HELM PEPTIDE1{[O=C(C[*:3])[*:2]].F.[meF].[CCCC[C@@H](C(=O)[*:2])N(C)[*:1]].P.D.V.[meF].Y.P.W.Y.L.C.G.[am]}$PEPTIDE1,PEPTIDE1,1:R3-14:R3$$$V2.0)	< 7.52		< 7.13	
CCCC[C@H]1C(=O)N2C[C@@H](O)C[C@@H]2C(=O)N[C@@H](CC(N)=O)C(=O)N[C@@H](C(C)C)C(=O)N(C)[C@@H](Cc2ccccc2)C(=O)N[C@@H](CCC(N)=O)C(=O)N2CCOC[C@@H]2C(=O)N[C@@H](Cc2c[nH]c3ccccc23)C(=O)N[C@@H](Cc2ccc(O)cc2)C(=O)N[C@@H](CCCN)C(=O)N[C@H](C(=O)NCC(N)=O)CSCC(=O)N[C@@H](Cc2cc(F)c(F)c(F)c2)C(=O)N(C)[C@@H](Cc2ccccc2)C(=O)N1C [Example 3605] ({CH2CO}-[Phe(3,4,5-F3)][NMeF][NMeNle][dHyp]NV[NMeF]Q[X4]WY[Orn]CG-NH2; thioether N-13)	8.17 to 9.41	8.33 to 9.80		
C=CCCCCC[C@H]1C(=O)N(C)[C@@H](CCCCCC=C)C(=O)N[C@@H](CCCNC(=N)N)C(=O)N[C@H](C(=O)NCC(N)=O)CSCC(=O)N[C@@H](Cc2ccccc2)C(=O)N(C)[C@@H](C)C(=O)N[C@@H](CC(N)=O)C(=O)N2CCC[C@H]2C(=O)N[C@@H](Cc2cnc[nH]2)C(=O)N[C@@H](CC(C)C)C(=O)N(C)CC(=O)N[C@@H](Cc2c[nH]c3ccccc23)C(=O)N[C@@H](CO)C(=O)N[C@@H](Cc2c[nH]c3ccccc23)C(=O)N1C [Example 1047]	< 7.52		< 7.13	
CCCC[C@H]1C(=O)N(C)CC(=O)N[C@@H](CC(=O)O)C(=O)N[C@@H](C(C)C)C(=O)N(C)[C@@H](Cc2ccccc2)C(=O)N[C@@H](Cc2ccc(O)cc2)C(=O)N2C[C@@H](O)C[C@@H]2C(=O)N[C@@H](Cc2c[nH]c3ccccc23)C(=O)N[C@@H](Cc2ccc(O)cc2)C(=O)N[C@@H](CC(C)C)C(=O)N[C@H](C(=O)NCC(N)=O)CSCC(=O)N[C@@H](Cc2ccccc2)C(=O)N(C)[C@@H](Cc2ccccc2)C(=O)N1C [Example 3583] ({CH2CO}-F[NMeF][NMeNle][Sar]DV[NMeF]Y[dHyp]WYLCG-NH2; thioether N-13)		8.33 to 9.80		
CCCC[C@H]1C(=O)N(C)[C@@H](CCCC)C(=O)N[C@@H](CCC(=O)O)C(=O)N[C@H](C(=O)NCC(N)=O)CSCC(=O)N[C@@H](Cc2ccc(O)cc2)C(=O)N(C)[C@@H](C)C(=O)N[C@@H](CC(=O)O)C(=O)N2CCC[C@H]2C(=O)N[C@@H](Cc2c[nH]cn2)C(=O)N[C@@H](CCCCN)C(=O)N2C[C@@H](c3ccccc3)C[C@H]2C(=O)N[C@@H](Cc2c[nH]c3ccccc23)C(=O)N[C@@H](CCCCN)C(=O)N[C@@H](Cc2c[nH]c3ccccc23)C(=O)N1C [Example 13006] ({CH2CO}-Y[NMeA]DPHK[Pro(cis-4-Ph)]WKW[NMeNle][NMeNle]ECG-NH2; thioether N-14)				8.83
CCCC[C@H]1C(=O)N[C@@H](CCCNC(=N)N)C(=O)NC(C(=O)NCC(N)=O)CSCC(=O)N[C@@H](Cc2ccc(O)cc2)C(=O)N(C)[C@@H](C)C(=O)N[C@@H](CC(N)=O)C(=O)N2CCC[C@H]2C(=O)N[C@@H](CN)C(=O)N[C@@H](CC(C)C)C(=O)N2CCC[C@H]2C(=O)N[C@@H](Cc2c[nH]c3ccccc23)C(=O)N[C@@H](CO)C(=O)N[C@@H](Cc2c[nH]c3ccccc23)C(=O)N(C)[C@@H](CCSC)C(=O)N1C (some centres unmarked) [Example 9097] ({CH2CO}-Y[NMeA]NP[Dap]LPWSW[NMeM][NMeNle]R[ξC]G-NH2; thioether N-14)		7.14 to 8.32		
